System: SH-SY5Y cells
Test: MTS cell viability assay, RA-differentiated SH-SY5Y cells
Format: cell-based, human
Conditions: three days
Description: one-way ANOVA with Dunnett’s multiple comparison test , # p<0.05 versus BDNF, according to one-way ANOVA with Sidak’s multiple comparison test).
Figure S 2. MT S assay for BDNF and its mimetic peptides. Cell viability assay of RA - differentiated SH -SY5Y cells treated for three days with 150 ng/ml BDNF of with different concentrations of m-, d- or s-bdnf peptides (M, D and S, respectively). ** p<0.01, *p<0.05, according to one-way ANOVA with Dunnett’s multiple comparison test).
(1 picture or pasted object on this page, not shown here) […]
incubated for 3 days in serum-free DMEM-F12 (morphometric ctrl). […]
SH-SY5Y were seeded at a density of 3.000 cell/well in 96 multiwell and differentiated as describe above. The viability of differentiated cells, in response to the various treatments, was assessed using an MTS assay (CellTiter 96 AQueous One Solution Cell Proliferation Assay kit; Promega) according to the manufacturer’s instructions. The absorbance of formazan at 490 nm was measured in a colorimetric assay with the EnSightTM multimode plate reader (Perkin Elmer). […]
TrkB phosphorylation was monitored after TrkB-eGFP construct immunoprecipitation, similarly to what previously reported for TrkA phosphorylation 3. […]

| Substance | cell viability (toxicity) (lower doses of m-bdnf) | cell viability (5–10 μM d-bdnf) |
| --- | --- | --- |
| HSDPARRGELSV-NH2 [m-bdnf, linear peptide fragment encompassing the first 12 amino acids of the mature NT N-terminal] | some toxicity |  |
| HSDPARRGELSVC-C-VSLEGRRAPDSH (disulfide) [d-bdnf] |  | no reduced vitality of the culture |

Reference: publication PMC9732821, “Neurotrophic Activity and Its Modulation by Zinc Ion of a Dimeric Peptide Mimicking the Brain-Derived Neurotrophic Factor N-Terminal Region” (ACS Chemical Neuroscience, 2022)
